This note sets out measurements from US7754765B2, “Copper chelators for treating ocular inflammation” (Radical Vision Therapeutics Inc, priority 2000, dated 2010).

Structures are written as SMILES.

The test system of assay [1] is retina. The assay can be described thus: Retinal thickness (edema) after laser photocoagulation in rats. It is filed as in vivo, Long-Evans rats. To be noted: 0.5 mmol/kg/day intraperitoneally; for retinal thickness, greater than that in normal retina: saline control 50%; for retinal thickness (edema) compared with control (saline injected), in words: day 1 post photocoagulation.

Assay [2] has as its system retina. The assay can be described thus: Retinal thickness (edema) after PDT (verteporfin) in rabbits. It is filed as in vivo, Pigmented rabbits. Conditions: for retinal thickness, greater than that in normal retina: 24 hours after PDT, 0.2 mmol/kg/day intramuscularly, saline control 140%; for retinal thickness (edema) compared with control (saline injected), in words: day 1 post PDT, TRIEN or TETREN (0.2 mM/day).

The subject of assay [3] is ED-1 immunoreactive (macrophage) cells in retina. The assay can be described thus: ED-1 (macrophage) immunostaining of retina after photocoagulation in rats. It is filed as in vivo. Conditions: vs saline injected; for number of ED-1 positive retina cells relative to controls (in words): 24 hours after laser treatment; for number of ED-1 positive cells, times less than control: Day 1 post photocoagulation, average of four 40× objective fields.

Regarding `CC(C)(S)[C@@H](N)C(=O)O` [D-PA, D-penicillamine], in assay [1] (24 hours post photocoagulation), the “retinal thickness, greater than that in the control animals (saline injected)” value was 35% and the “retinal thickness, greater than that in normal retina” value (“retinal thickness … in normal retina” for short) worked out at 85%. The “retinal thickness (edema) compared with control (saline injected), in words” value in assay [1] was “greater than that in control eyes”. The “retinal thickness (edema) compared with control (saline injected), in words” value in assay [1] (listed as DPA) was “showed the opposite effect”.

On to `NCCNCCNCCNCCN` [TETREN, tetraethylenepentamine], for which, in assay [2], the “retinal thickness … in normal retina” value turned out to be 45% and the “retinal thickness (edema) compared with control (saline injected), in words” value was “significantly less than that in control”. In assay [3], the “number of ED-1 positive retina cells relative to controls (in words)” value is “more than half that of control animals” and the “number of ED-1 positive cells, times less than control” value was 2.5 times. Further, in assay [1] (24 hours post photocoagulation), the “retinal thickness … in normal retina” value is reported as 26%. Moreover, the “retinal thickness (edema) compared with control (saline injected), in words” value in assay [1] is on record as “retinal thickness of eyes from control animals (saline injected) is greater”.

Take `NCCNCCNCCN` [TRIEN, triethylenetetramine]: the “retinal thickness … in normal retina” value in assay [2] is given as 50%; in assay [1] (24 hours post photocoagulation) it was 23%. Also, the entries for the “retinal thickness (edema) compared with control (saline injected), in words” value in assay [2] and in assay [1] were “significantly less than that in control” and “retinal thickness of eyes from control animals (saline injected) is greater”, respectively. Moreover, the “number of ED-1 positive retina cells relative to controls (in words)” value in assay [3] was “approximately half that of the controls”. Also, the “number of ED-1 positive cells, times less than control” value in assay [3] was “two times less”.
